Results from patent publication US20250163048A1 (Tango Therapeutics, Inc., priority 2022, published 2025).
pIC50: −log10 of the molar value. Read-outs that look alike come from different tables or passages of the source.

Key:
MTAP-deleted cell line = experiment: viability assay for the MTAP-deleted cell line; type: cell-based; settings: Homo sapiens, HAP1, viability assay
[1] = tested on: HAP1 MTAP-deleted cell line; experiment: SDMA in-cell western assay, HAP1 MTAP-deleted; settings: for pIC50 / IC90: Homo sapiens; for Hap1 MTAP intact/deleted ratio: IC50 ratio between HAP1 MTAP-intact and HAP1 MTAP-deleted cell line
[2] = tested on: HAP1 MTAP-intact cell line; experiment: SDMA in-cell western assay, HAP1 MTAP-intact; settings: Homo sapiens
[3] = HAP1, read-out: Hap1 MTAP deleted IC50, SDMA in-cell western, HAP1 MTAP-deleted cell line
[4] = HAP1, read-out: Hap1 MTAP deleted IC90, SDMA in-cell western, HAP1 MTAP-deleted cell line
[5] = HAP1, read-out: Hap1 MTAP intact IC50, SDMA in-cell western, HAP1 MTAP-intact cell line
[6] = HAP1, read-out: Hap1 MTAP deleted IC50, SDMA in-cell western assay, HAP1 MTAP-deleted cell line
[7] = HAP1, read-out: Hap1 MTAP deleted IC90, SDMA in-cell western assay, HAP1 MTAP-deleted cell line
[8] = HAP1, read-out: Hap1 MTAP intact IC50, SDMA in-cell western assay, HAP1 MTAP-intact cell line

pIC50 [1, 3] | IC90 [1, 4] [nM] | pIC50 [2, 5] | pIC50 [1, 6] | IC90 [1, 7] [nM] | pIC50 [2, 8] | Structure (SMILES) | pIC50 (MTAP-deleted cell line) | Hap1 MTAP intact/deleted ratio ([1]; SDMA in-cell western) | pIC50 ([1]; HAP1, read-out: Hap1 MTAP deleted IC50) | IC90 ([1]; HAP1, read-out: Hap1 MTAP deleted IC90) [nM] | pIC50 ([2]; HAP1, read-out: Hap1 MTAP intact IC50) | Hap1 MTAP intact/deleted ratio ([1]; SDMA in-cell western assay)
> 8.30 | 75 to 125 | < 7.30 | – | – | – | C[C@H]1CC[C@H](c2ccc3sc(C4CC5(C4)CN(C)C5)nc3c2)N(C(=O)C(=O)Nc2cncc3c(N)nccc23)C1 [Compound 108, N-(8-amino-2,7-naphthyridin-4-yl)-2-((2R,5S)-5-methyl-2-(2-(2-methyl-2-azaspiro[3.3]heptan-6-yl)benzo[d]thiazol-5-yl)piperidin-1-yl)-2-oxoacetamide] | > 7.00 | B (“B” indicates an IC50 ratio greater than or equal to 15 fold but lower than 30 fold) | – | – | – | –
– | – | – | – | – | – | C[C@H]1CC[C@H](c2ccc3sc(C4(O)CCN(C)CC4)nc3c2)N(C(=O)C(=O)Nc2cncc3cn[nH]c23)C1 [Compound 19, 2-((2R,5S)-2-(2-(4-hydroxy-1-methylpiperidin-4-yl)benzo[d]thiazol-5-yl)-5-methylpiperidin-1-yl)-2-oxo-N-(1H-pyrazolo[4,3-c]pyridin-7-yl)acetamide] | > 7.00 | C (“C” indicates an IC50 ratio of less than 15 fold) | > 8.30 | < 75 | 7.30 to 8.30 | –
> 8.30 | < 75 | 7.30 to 8.30 | – | – | – | C[C@H]1CC[C@H](c2ccc3cn(C4CC(C)(C)N(C)C(C)(C)C4)nc3c2)N(C(=O)C(=O)Nc2cncc3cn[nH]c23)C1 [Compound 45, 2-oxo-N-(1H-pyrazolo[4,3-c]pyridin-7-yl)-2-[(2R,5S)-5-methyl-2-[2-(1,2,2,6,6-pentamethyl-4-piperidyl)indazol-6-yl]-1-piperidyl]acetamide] | > 7.00 | B (“B” indicates an IC50 ratio greater than or equal to 15 fold but lower than 30 fold) | – | – | – | –
7.30 to 8.30 | 75 to 125 | < 7.30 | – | – | – | C[C@H]1CC[C@H](c2ccc3nn([C@H]4CCN(C)C4)cc3c2)N(C(=O)C(=O)Nc2cncc3cn[nH]c23)C1 [Compound 104, 2-oxo-N-(1H-pyrazolo[4,3-c]pyridin-7-yl)-2-[(2R,5S)-5-methyl-2-[2-[(3S)-1-methylpyrrolidin-3-yl]indazol-5-yl]-1-piperidyl]acetamide] | 6.00 to 7.00 | A (“A” indicates an IC50 ratio greater than or equal to 30 fold) | – | – | – | –
> 8.30 | < 75 | < 7.30 | – | – | – | C[C@H]1CC[C@H](c2ccc3cn(CCN(C)C)nc3c2)N(C(=O)C(=O)Nc2cncc3cn[nH]c23)C1 [Compound 163, 2-oxo-N-(1H-pyrazolo[4,3-c]pyridin-7-yl)-2-[(2R,5S)-2-[2-[2-(dimethylamino)ethyl]indazol-6-yl]-5-methyl-1-piperidyl]acetamide] | > 7.00 | A (“A” indicates an IC50 ratio greater than or equal to 30 fold) | – | – | – | –
> 8.30 | < 75 | 7.30 to 8.30 | – | – | – | CCn1ncc2cc([C@H]3CC[C@H](C)CN3C(=O)C(=O)Nc3cnc(N)c4cn[nH]c34)ccc21 (racemic) [Compound 189, N-(4-Amino-1H-pyrazolo[4,3-c]pyridin-7-yl)-2-oxo-2-[rac-(2R,5S)-2-(1-ethylindazol-5-yl)-5-methyl-1-piperidyl]acetamide] | > 7.00 | C (“C” indicates an IC50 ratio of less than 15 fold) | – | – | – | –
– | – | – | 7.30 to 8.30 | > 125 | < 7.30 | C[C@H]1CC[C@H](c2ccccc2)N(C(=O)C(=O)Nc2cnc(N)c3c2OCC3)C1 [Compound 214] | 6.00 to 7.00 | – | – | – | – | B (“B” indicates an IC50 ratio greater than or equal to 15 fold but lower than 30 fold)
– | – | – | > 8.30 | < 75 | < 7.30 | C[C@@H]1CCC[C@H](c2ccccc2)N1C(=O)C(=O)Nc1cnc(N)c2cn[nH]c12 (racemic) [Compound 270, N-(4-Amino-1H-pyrazolo[4,3-c]pyridin-7-yl)-2-oxo-2-[rac-(2R,6R)-2-methyl-6-phenyl-1-piperidyl]acetamide] | > 7.00 | – | – | – | – | A (“A” indicates an IC50 ratio greater than or equal to 30 fold)
> 8.30 | 75 to 125 | < 7.30 | – | – | – | C[C@H]1CC[C@H](c2ccc3sc([C@@H](C)CN(C)C)nc3c2)N(C(=O)C(=O)Nc2ccn3ccnc3c2)C1 [Compound 56, N-imidazo[1,2-a]pyridin-7-yl-2-oxo-2-[(2R,5S)-5-methyl-2-[2-[(^1R)-2-(dimethylamino)-1-methyl-ethyl]-1,3-benzothiazol-5-yl]-1-piperidyl]acetamide] | > 7.00 | B (“B” indicates an IC50 ratio greater than or equal to 15 fold but lower than 30 fold) | – | – | – | –
– | – | – | 7.30 to 8.30 | > 125 | < 7.30 | CCn1nccc1[C@H]1CC[C@@H](C)CN1C(=O)C(=O)Nc1cnc(N)c2cn[nH]c12 (stereo in doubt) [Compound 285, N-(4-Amino-1H-pyrazolo[4,3-c]pyridin-7-yl)-2-oxo-2-[rac-(2R,5R)-2-(2-ethylpyrazol-3-yl)-5-methyl-1-piperidyl]acetamide] | 6.00 to 7.00 | – | – | – | – | A (“A” indicates an IC50 ratio greater than or equal to 30 fold)
7.30 to 8.30 | 75 to 125 | < 7.30 | – | – | – | C[C@@H]1CC[C@@H](c2ccc3cn(C)nc3c2)N(C(=O)C(=O)Nc2cncc3cn[nH]c23)C1 (relative stereo) [Compound 13, 2-[rel-(2S,5R)-5-methyl-2-(2-methylindazol-6-yl)-1-piperidyl]-2-oxo-N-(1H-pyrazolo[4,3-c]pyridin-7-yl)acetamide] | 6.00 to 7.00 | B (“B” indicates an IC50 ratio greater than or equal to 15 fold but lower than 30 fold) | – | – | – | –
> 8.30 | < 75 | < 7.30 | – | – | – | C[C@H]1CC[C@H](c2ccccc2)N(C(=O)C(=O)Nc2cnc(N)c3c2cnn3C)C1 [Compound 194, N-(7-amino-1-methyl-1H-pyrazolo[3,4-c]pyridin-4-yl)-2-((2R,5S)-5-methyl-2-phenylpiperidin-1-yl)-2-oxoacetamide] | > 7.00 | B (“B” indicates an IC50 ratio greater than or equal to 15 fold but lower than 30 fold) | – | – | – | –
> 8.30 | < 75 | 7.30 to 8.30 | – | – | – | C[C@H]1CC[C@H](c2cccc(OC[C@H](C)N(C)C)c2)N(C(=O)C(=O)Nc2cnc(N)c3cn[nH]c23)C1 [Compound 164, N-(4-amino-1H-pyrazolo[4,3-c]pyridin-7-yl)-2-((2R,5S)-2-(3-((S)-2-(dimethylamino)propoxy)phenyl)-5-methylpiperidin-1-yl)-2-oxoacetamide] | > 7.00 | C (“C” indicates an IC50 ratio of less than 15 fold) | – | – | – | –
– | – | – | > 8.30 | < 75 | 7.30 to 8.30 | C[C@H]1CC[C@H](c2cccc3c2CCO3)N(C(=O)C(=O)Nc2cnc(N)c3cn[nH]c23)C1 (racemic) [Compound 282, N-(4-Amino-1H-pyrazolo[4,3-c]pyridin-7-yl)-2-oxo-2-[rac-(2R,5S)-2-(2,3-dihydrobenzofuran-4-yl)-5-methyl-1-piperidyl]acetamide] | > 7.00 | – | – | – | – | A (“A” indicates an IC50 ratio greater than or equal to 30 fold)
> 8.30 | < 75 | < 7.30 | – | – | – | CC1=C(c2nc3cc([C@H]4CC[C@H](C)CN4C(=O)C(=O)Nc4cncc5cn[nH]c45)ccc3s2)CCN(C)C1 [Compound 165] | > 7.00 | A (“A” indicates an IC50 ratio greater than or equal to 30 fold) | – | – | – | –
